# US20100112600A1, “Methods and compositions for modulating synapse formation” (priority 2006, published 2010)
# Experiments:
# MEF2A Ser408 = experiment: Immunoblot of phospho-Ser408 MEF2A in depolarized granule neurons; format: cell-based, rat; conditions: granule neurons depolarized with 25 mM KCl; Nim 20 μM, CsA 4 μM
# Experimental: Lysates of granule neurons were depolarized with 25 mM KCl were immunoblotted for MEF2A, phospho-Ser408 MEF2A or ERK1/2. Nim=Nimodipine, 20 μM.
# Cultures of primary granule neurons were isolated from P6 Long-Evans rats using known methods. Granule neurons were maintained in full medium (BME+10% calf serum (Hyclone), 1 mM each penicillin, streptomycin and L-glutamine and 25 mM KCl). Granule neurons were transfected in DMEM by DNA-calcium phosphate precipitation using standard methods.
# endogenous MEF2A = experiment: Immunoblot of sumoylation and acetylation of endogenous MEF2A in depolarized granule neurons; format: cell-based, rat
# Experimental: In FIG. 3F, granule neurons in non-depolarizing concentrations of KCl (5 mM) were lysed in the presence or absence of the isopeptidase inhibitor N-ethylmaleimide (NEM) and immunoblotted for MEF2A. […] In FIG. 3G, granule neurons are exposed to media containing non-depolarizing (5 mM) or depolarizing (25 mM) concentrations of KCl in the presence of nimodipine (Nim) or its control vehicle (DMSO) were lysed in the presence of NEM and immunoblotted as in FIG. 3F. […] Cultures of primary granule neurons were isolated from P6 Long-Evans rats using known methods. Granule neurons were maintained in full medium (BME+10% calf serum (Hyclone), 1 mM each penicillin, streptomycin and L-glutamine and 25 mM KCl).
# Nur77 promoter = experiment: Nur77-luciferase reporter gene assay in granule neurons; format: cell-based, rat; conditions: depolarized granule neurons
# Experimental: FIG. 5C is a bar graph. […] Treatment with CsA prevented depolarization-induced expression of the WT Nur77-luciferase reporter gene (p<0.0001, ANOVA; n=6), but had no effect on MREmut Nur77-luciferase reporter gene.
# (§1) Luciferase assays were performed as described (Shalizi et al., 2006, Science 311: 1012-1017) with minor modifications. Granule neurons were transfected with the reporter constructs pNur77-luc or pNur77mut-luc and pRL-TK and the indicated hpRNA expression plasmids, and an expression construct for Bcl-XL. Granule neurons were switched from full medium to fresh BME supplemented with 5% calf serum (Hyclone) 72 hours after transfection and incubated overnight. 293T cells maintained as described were cotransfected with p5G4luc or pMEF2×3luc and pRL-TK reporter constructs and the indicated expression plasmids by DNA-calcium phosphate precipitation. Fresh growth media was added within 24 hours of transfection. Cells were lysed 48 hours after transfection. In both neurons and 293T cells, firefly-and renilla-luciferase activities were determined using a dual-luciferase assay kit (Promega) according to the manufacturers instructions.
# Primary rat cerebellar granule neurons were transfected with the U6/piasx1, U6/piasx2, or control U6 RNAi plasmid together with a luciferase reporter gene controlled by the Nur77 promoter containing two MEF2 response elements (MREs). […]
# [1] = system: granule neuron dendritic claws; experiment: Dendritic claw number of granule neurons in organotypic cerebellar slices; format: cell-based, rat
# Experimental: The role that MEF2A plays in synaptic dendritic development in the cerebellar cortex was determined. […] To visualize granule neurons undergoing postsynaptic differentiation, organotypic cerebellar slices prepared from postnatal day 9 (P9) rat pups were transfected with an expression plasmid encoding green fluorescent protein (GFP). Transfected granule neurons in the internal granular layer (IGL) had the typical small cell body with associated parallel axonal fibers and few dendrites (FIGS. 1A and 1B). Many dendrites harbored structures with the appearance of dendritic claws that were identified based on classic descriptions as: (i) located at the end of a dendrite, (ii) having cup- or sickle-like appearance, and (iii) displaying undulating or serrated inner surfaces (FIGS. 1C and 1D). […] The effect of MEF2A knockdown on granule neuron dendritic morphogenesis was next determined. Cerebellar slices were transfected with the U6/mef2a plasmid that encodes MEF2A hairpin RNAs (MEF2AhpRNA) or the control U6 plasmid together with a GFP expression plasmid.
# Slices were prepared and processed using known methods. […]
# Microscopy was carried out using standard methods. […] Images of transfected granule neurons were analyzed using SPOT software for dendritic length, number of primary dendrites, and number of branches per primary dendrite as described.
# [2] = system: MEF2-response elements (MRE-luciferase); experiment: MRE-luciferase reporter gene assay in cells; format: cell-based; conditions: co-transfected expression plasmid
# Experimental: FIG. 4B is a bar graph and a series of immunoblots. Cells coexpressing MEF2A and increasing amounts of MEF2A-SUMO together with a 3-MRE luciferase reporter gene (pMEF2×3-luc) and pRL-TK. […] Lysates were also immunoblotted for MEF2 or ERK1/2.
# as §1
# Sumoylation of MEF2A represses MEF2-dependent transcription. The effect of PIASx expression on MEF2-dependent transcription in cells was examined. […]
molecule,measurement,setting,value
cyclosporin A,depolarization-induced dephosphorylation of MEF2A at Ser408,MEF2A Ser408,blocked
same,acetylation of endogenous MEF2A,endogenous MEF2A; depolarized neurons,decreased
same,sumoylation of endogenous MEF2A,endogenous MEF2A; depolarized neurons (25 mM KCl),increased
same,MREmut Nur77-luciferase reporter gene,Nur77 promoter; Nur77 promoter with mutant MRE,no effect
same,depolarization-induced expression of the WT Nur77-luciferase reporter gene,Nur77 promoter; Nur77 promoter with wild type MRE,prevented
"PIASx: MEF2A SUMO E3 ligase; PIASxα and PIASxβ isoforms collectively (protein, UniProt O75928 1-621, looked up) E3 SUMO-protein ligase PIAS2: MADFEELRNMVSSFRVSELQVLLGFAGRNKSGRKHDLLMRALHLLKSGCSPAVQIKIRELYRRRYPRTLEGLSDLSTIKSSVFSLDGGSSPVEPDLAVAGIHSLPSTSVTPHSPSSPVGSVLLQDTKPTFEMQQPSPPIPPVHPDVQLKNLPFYDVLDVLIKPTSLVQSSIQRFQEKFFIFALTPQQVREICISRDFLPGGRRDYTVQVQLRLCLAETSCPQEDNYPNSLCIKVNGKLFPLPGYAPPPKNGIEQKRPGRPLNITSLVRLSSAVPNQISISWASEIGKNYSMSVYLVRQLTSAMLLQRLKMKGIRNPDHSRALIKEKLTADPDSEIATTSLRVSLMCPLGKMRLTIPCRAVTCTHLQCFDAALYLQMNEKKPTWICPVCDKKAAYESLILDGLFMEILNDCSDVDEIKFQEDGSWCPMRPKKEAMKVSSQPCTKIESSSVLSKPCSVTVASEASKKKVDVIDLTIESSSDEEEDPPAKRKCIFMSETQSSPTKGVLMYQPSSVRVPSVTSVDPAAIPPSLTDYSVPFHHTPISSMSSDLPGLDFLSLIPVDPQYCPPMFLDSLTSPLTASSTSVTTTSSHESSTHVSSSSSRSETGVITSSGSNIPDIISLD",dendritic claw number on expression of the construct,[1]; cerebellar slices transfected with expression plasmid vs control vector,robustly increased
same,MRE-dependent transcription (luciferase reporter),[2],potently inhibited
"PIASx-Res: wild type PIASx protein expressed from cDNA resistant to piasx2 hpRNAs (protein, UniProt O75928 1-621, looked up, expressed from hpRNA-resistant cDNA, wild type PIASx protein expressed from cDNA resistant to piasx2 hpRNAs) E3 SUMO-protein ligase PIAS2: MADFEELRNMVSSFRVSELQVLLGFAGRNKSGRKHDLLMRALHLLKSGCSPAVQIKIRELYRRRYPRTLEGLSDLSTIKSSVFSLDGGSSPVEPDLAVAGIHSLPSTSVTPHSPSSPVGSVLLQDTKPTFEMQQPSPPIPPVHPDVQLKNLPFYDVLDVLIKPTSLVQSSIQRFQEKFFIFALTPQQVREICISRDFLPGGRRDYTVQVQLRLCLAETSCPQEDNYPNSLCIKVNGKLFPLPGYAPPPKNGIEQKRPGRPLNITSLVRLSSAVPNQISISWASEIGKNYSMSVYLVRQLTSAMLLQRLKMKGIRNPDHSRALIKEKLTADPDSEIATTSLRVSLMCPLGKMRLTIPCRAVTCTHLQCFDAALYLQMNEKKPTWICPVCDKKAAYESLILDGLFMEILNDCSDVDEIKFQEDGSWCPMRPKKEAMKVSSQPCTKIESSSVLSKPCSVTVASEASKKKVDVIDLTIESSSDEEEDPPAKRKCIFMSETQSSPTKGVLMYQPSSVRVPSVTSVDPAAIPPSLTDYSVPFHHTPISSMSSDLPGLDFLSLIPVDPQYCPPMFLDSLTSPLTASSTSVTTTSSHESSTHVSSSSSRSETGVITSSGSNIPDIISLD","number of claws restored, relative to control U6 transfected cerebellar slices",[1]; expression in the background of piasx2 RNAi,~80%
